Experimental data from PubChem BioAssay AID2060496 (Molecular Pharmacology Branch, DTP, NCI, 2025).

System: 276233-004-R-J1-PDC complex spheroid viability
Test: Anticancer human tumor 276233-004-R-J1-PDC patient-derived colon adenocarcinoma cell line growth inhibition [GQUAD]
Details: for IC50: curve of first compound; for viability, T/C: stronger effect = lower value
From the text: DNA G-quadruplex Stabilizer Agents in Combinations in Complex Spheroids
A high-throughput screen of multi-cell type tumor spheroids was designed to identify active combinations of DNA G-quadruplex stabilizer agents and targeted small molecules. Complex spheroids include a stromal component modeled by human endothelial cells (HUVEC) and fibroblasts modeled by human mesenchymal stem cells (MSCs). The concentration ranges selected for each drug and investigational agent were based upon clinically achievable concentrations if the clinical Cmax of the agent was known.
Compounds. The drugs and investigational agents: pidnarulex (CX-5461; NSC782164), APTO-253 (NSC789042), BRACO-19 (NSC847499), peposertib (NSC802822), ceralasertib (NSC780249), elimusertib (NSC800525), camonsertib (NSC841442), AZD-1390 (NSC803789), olaparib (NSC753686), talazoparib (NSC767125), ART-558 (NSC835418), sotorasib (NSC818433), MRTX-1133 (NSC836407), SN-38 (NSC673596), topotecan (NSC609699), etoposide (NSC141540), doxorubicin (NSC123127), gemcitabine (NSC613327), 5-fluorouracil (NSC19893), paclitaxel (NSC125973), vemurafenib (NSC761431), panobinostat (NSC761190), R-306465 (JNJ-16241199; NSC773264), adavosertib (NSC754352), TP-3654 (NSC805149), carboplatin (NSC241240), KSQ-4279 (NSC840948), and staurosporine (NSC755774) were obtained from the National Cancer Institute (NCI) Developmental Therapeutics Program Chemical Repository (34). The FDA-approved anticancer drug set is available from the NCI Developmental Therapeutics Program. […] The stock solutions were prepared in dimethyl sulfoxide (DMSO, Sigma-Aldrich, St. Louis, MO, cat. D2650) at 800-fold the tested concentration and stored at -70 degrees C prior to their use. All drugs and investigational agents were tested over a range starting from a high concentration at or near the clinical Cmax and decreasing in half-log increments. If the clinical Cmax for an agent had not been determined, the highest concentration tested was 10 microM.
2.3 Cell Culture. All cells were maintained in an incubator at 37 degrees C and 5% CO2 with 95% humidity. The PDC lines were cultured according to standard operating procedures established by the NCI PDMR. All PDCs were thawed and cultured in Matrigel-coated flasks prepared with a working solution of 1X Ham's F-12 nutrient mix, without supplementation (Invitrogen, cat. 11765054), 100 U/mL penicillin-streptomycin (Invitrogen, cat. 15140122), and 2.5% Matrigel (Corning Inc., cat. 354248) for the first three passages. The 857933-349-R-J2-PDC line was cultured in 6C/Colon 1B media, which includes advanced DMEM/F-12 (Thermo Fisher Scientific, cat. 12634028), 10 mM HEPES (Thermo Fisher Scientific, cat. 15630080), 1X GlutaMAX supplement (Thermo Fisher Scientific, cat. 35050061), 0.1 mg/mL primocin (InvivoGen, cat. ant-pm-2), 10% defined fetal bovine serum, heat inactivated (HyClone Laboratories Inc., cat. SH30070.03HI), 50% L-WRN conditioned media (ATCC, cat. CRL-3276), 1.25 mM N-Acetyl-L-cysteine (Sigma-Aldrich, cat. A9165), 10 mM nicotinamide (Sigma-Aldrich, cat. N0636), 1X B-27 supplement (Thermo Fisher Scientific, cat. 17504044), 1X N-2 supplement (Thermo Fisher Scientific, cat. 17502048), 10 microM Y-27632 dihydrochloride (Tocris Bioscience, cat. 1254), and 50 ng/mL human EGF recombinant protein (Thermo Fisher Scientific, cat. PHG0311). The 485176-168-R4-J1-PDC line was cultured in Panc media, which includes all 6C/Colon 1B media components plus 100 ng/mL human FGF-10 (Thermo Fisher Scientific, cat. 100-26), 500 nM SB-431542 (Selleckchem, cat. S1067), and gastrin (Tocris, cat. 3006).
[…]

[1] = second compound 0.0316 µM, first compound 0.0316 µM
[2] = second compound 0.0316 µM, first compound 0.1 µM
[3] = second compound 0.0316 µM, first compound 0.316 µM
[4] = second compound 0.0316 µM, first compound 1 µM
[5] = second compound 0.0316 µM, first compound 3.16 µM
[6] = second compound 0.0316 µM, first compound 10 µM
[7] = second compound 0.1 µM, first compound 0.0316 µM
[8] = second compound 0.1 µM, first compound 0.1 µM
[9] = second compound 0.1 µM, first compound 0.316 µM
[10] = second compound 0.1 µM, first compound 1 µM
[11] = second compound 0.1 µM, first compound 3.16 µM
[12] = second compound 0.1 µM, first compound 10 µM
[13] = second compound 0.316 µM, first compound 0.0316 µM
[14] = second compound 0.316 µM, first compound 0.1 µM
[15] = second compound 0.316 µM, first compound 0.316 µM
[16] = second compound 0.316 µM, first compound 1 µM
[17] = second compound 0.316 µM, first compound 3.16 µM
[18] = second compound 0.316 µM, first compound 10 µM
[19] = second compound 1 µM, first compound 0.0316 µM
[20] = second compound 1 µM, first compound 0.1 µM
[21] = second compound 1 µM, first compound 0.316 µM
[22] = second compound 1 µM, first compound 1 µM
[23] = second compound 1 µM, first compound 3.16 µM
[24] = second compound 1 µM, first compound 10 µM
[25] = second compound 3.16 µM, first compound 0.0316 µM
[26] = second compound 3.16 µM, first compound 0.1 µM
[27] = second compound 3.16 µM, first compound 0.316 µM
[28] = second compound 3.16 µM, first compound 1 µM
[29] = second compound 3.16 µM, first compound 3.16 µM
[30] = second compound 3.16 µM, first compound 10 µM
[31] = second compound 10 µM, first compound 0.0316 µM
[32] = second compound 10 µM, first compound 0.1 µM
[33] = second compound 10 µM, first compound 0.316 µM
[34] = second compound 10 µM, first compound 1 µM
[35] = second compound 10 µM, first compound 3.16 µM
[36] = second compound 10 µM, first compound 10 µM
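Also: spheroids exposed to drugs for seven days.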
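For viability, T/C in this document: 100% = DMSO vehicle control viability.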

`C=CC(=O)N1CCN(c2nc(=O)n(-c3c(C)ccnc3C(C)C)c3nc(-c4c(O)cccc4F)c(F)cc23)C(C)C1` (stereo unspecified) + Cc1[nH]c2ccc(F)cc2c1-c1nc2c3cccnc3c3ncccc3c2[nH]1 was tested, and the IC50 (second compound 0.0316 µM) was > 10 µM, the IC50 (second compound 0.1 µM) was > 10 µM and the IC50 (second compound 0.316 µM) was > 10 µM. The IC50 (second compound 1 µM) was > 10 µM, the IC50 (second compound 3.16 µM) was > 10 µM and the IC50 (second compound 10 µM) was < 0.0316 µM. The viability, T/C [1] was 106%, the viability, T/C [2] was 95.5% and the viability, T/C [3] was 85.4%. For the same molecule, the viability, T/C [4] was 90%, the viability, T/C [5] was 95.2% and the viability, T/C [6] was 88.5%. For the same molecule, the viability, T/C [7] was 102%, the viability, T/C [8] was 91.9% and the viability, T/C [9] was 103%. For the same molecule, the viability, T/C [10] was 108%, the viability, T/C [11] was 81.4% and the viability, T/C [12] was 93%. For the same molecule, the viability, T/C [13] was 75.5%, the viability, T/C [14] was 94.9% and the viability, T/C [15] was 74.5%. It also gave a viability, T/C [16] of 83.4%, a viability, T/C [17] of 87.4% and a viability, T/C [18] of 84.4%. It also gave a viability, T/C [19] of 81.4%, a viability, T/C [20] of 90.4% and a viability, T/C [21] of 78.4%. It also gave a viability, T/C [22] of 73.4%, a viability, T/C [23] of 84.9% and a viability, T/C [24] of 80.9%. For the same molecule, the viability, T/C [25] was 70.7%, the viability, T/C [26] was 50.6% and the viability, T/C [27] was 49.4%. It also gave a viability, T/C [28] of 52.3%, a viability, T/C [29] of 68.6% and a viability, T/C [30] of 52.2%. It also gave a viability, T/C [31] of 39%, a viability, T/C [32] of 38.7% and a viability, T/C [33] of 61%. The viability, T/C [34] was 53.1%, the viability, T/C [35] was 56% and the viability, T/C [36] was 51%.

`Cc1[nH]c2ccccc2c1CCNCc1ccc(/C=C/C(=O)NO)cc1` + Cc1[nH]c2ccc(F)cc2c1-c1nc2c3cccnc3c3ncccc3c2[nH]1 was tested, and the IC50 (second compound 0.0316 µM) was 0.102 µM, the IC50 (second compound 0.1 µM) was 0.0721 µM and the IC50 (second compound 0.316 µM) was 0.0452 µM. The IC50 (second compound 1 µM) was 0.039 µM, the IC50 (second compound 3.16 µM) was < 0.000999 µM and the IC50 (second compound 10 µM) was < 0.000999 µM. For the same molecule, the viability, T/C (second compound 0.0316 µM, first compound 0.000999 µM) was 82.7%, the viability, T/C (second compound 0.0316 µM, first compound 0.00316 µM) was 100% and the viability, T/C (second compound 0.0316 µM, first compound 0.00999 µM) was 82.1%. It also gave a viability, T/C [1] of 96%, a viability, T/C (second compound 0.0316 µM, first compound 0.0999 µM) of 50.5% and a viability, T/C [3] of 13.1%. It also gave a viability, T/C (second compound 0.1 µM, first compound 0.000999 µM) of 76.9%, a viability, T/C (second compound 0.1 µM, first compound 0.00316 µM) of 84.2% and a viability, T/C (second compound 0.1 µM, first compound 0.00999 µM) of 62.8%. The viability, T/C [7] was 68%, the viability, T/C (second compound 0.1 µM, first compound 0.0999 µM) was 43.9% and the viability, T/C [9] was 10.9%. The viability, T/C (second compound 0.316 µM, first compound 0.000999 µM) was 64.2%, the viability, T/C (second compound 0.316 µM, first compound 0.00316 µM) was 62.3% and the viability, T/C (second compound 0.316 µM, first compound 0.00999 µM) was 46.5%. For the same molecule, the viability, T/C [13] was 64%, the viability, T/C (second compound 0.316 µM, first compound 0.0999 µM) was 26.4% and the viability, T/C [15] was 32.4%. For the same molecule, the viability, T/C (second compound 1 µM, first compound 0.000999 µM) was 58.9%, the viability, T/C (second compound 1 µM, first compound 0.00316 µM) was 44.6% and the viability, T/C (second compound 1 µM, first compound 0.00999 µM) was 65.7%. It also gave a viability, T/C [19] of 50.8%, a viability, T/C (second compound 1 µM, first compound 0.0999 µM) of 37.1% and a viability, T/C [21] of 7.17%. The viability, T/C (second compound 3.16 µM, first compound 0.000999 µM) was 18.3%, the viability, T/C (second compound 3.16 µM, first compound 0.00316 µM) was 15.9% and the viability, T/C (second compound 3.16 µM, first compound 0.00999 µM) was 21.4%. The viability, T/C [25] was 13.6%, the viability, T/C (second compound 3.16 µM, first compound 0.0999 µM) was 7.05% and the viability, T/C [27] was 6.05%. For the same molecule, the viability, T/C (second compound 10 µM, first compound 0.000999 µM) was 35.8%, the viability, T/C (second compound 10 µM, first compound 0.00316 µM) was 45.9% and the viability, T/C (second compound 10 µM, first compound 0.00999 µM) was 36.5%. It also gave a viability, T/C [31] of 39.7%, a viability, T/C (second compound 10 µM, first compound 0.0999 µM) of 35.3% and a viability, T/C [33] of 17.5%.

`COc1cc(C2c3cc4c(cc3C(OC3OC5COC(C)OC5C(O)C3O)C3COC(=O)C23)OCO4)cc(OC)c1O` (stereo unspecified) + Cc1cnc(CNC(=O)c2c(=O)c3ccc(N4CCCN(C)CC4)nc3n3c2sc2ccccc23)cn1 was tested, and the IC50 (second compound 0.0316 µM) was > 10 µM, the IC50 (second compound 0.1 µM) was > 10 µM and the IC50 (second compound 0.316 µM) was > 10 µM. For the same molecule, the IC50 (second compound 1 µM) was > 10 µM, the IC50 (second compound 3.16 µM) was > 10 µM and the IC50 (second compound 10 µM) was > 10 µM. It also gave a viability, T/C [1] of 83.2%, a viability, T/C [2] of 91.7% and a viability, T/C [3] of 87.8%. It also gave a viability, T/C [4] of 72.9%, a viability, T/C [5] of 98.6% and a viability, T/C [6] of 82.1%. It also gave a viability, T/C [7] of 97%, a viability, T/C [8] of 92.2% and a viability, T/C [9] of 76.2%. The viability, T/C [10] was 95.3%, the viability, T/C [11] was 75.5% and the viability, T/C [12] was 88%. For the same molecule, the viability, T/C [13] was 85.4%, the viability, T/C [14] was 77.3% and the viability, T/C [15] was 86.9%. The viability, T/C [16] was 94.8%, the viability, T/C [17] was 73.1% and the viability, T/C [18] was 81%. For the same molecule, the viability, T/C [19] was 84.8%, the viability, T/C [20] was 80.2% and the viability, T/C [21] was 85.8%. For the same molecule, the viability, T/C [22] was 83.2%, the viability, T/C [23] was 96.4% and the viability, T/C [24] was 78.2%. The viability, T/C [25] was 78.7%, the viability, T/C [26] was 78.2% and the viability, T/C [27] was 76.7%. For the same molecule, the viability, T/C [28] was 76.9%, the viability, T/C [29] was 87.7% and the viability, T/C [30] was 75.2%. For the same molecule, the viability, T/C [31] was 65.1%, the viability, T/C [32] was 72.2% and the viability, T/C [33] was 70.9%. The viability, T/C [34] was 71.5%, the viability, T/C [35] was 78.7% and the viability, T/C [36] was 82.9%.
